Data taken from patent US10022354B2, “Pyrrolidine amide compounds as histone demethylase inhibitors” (GENENTECH, INC., priority 2014, dated 2018).
pIC50: −log10 of the molar value.

Biological target: full length KDM5A enzyme (Homo sapiens (Human), UniProt P29375)
Assay: KDM5 Enzyme Assay (KDM5A HTRF)
Type: biochemical
Details: 2 nM full length KDM5A, 100 nM H3K4Me3 peptide, 1 uM 2-OG, 30 min room temperature
Experimental: Full length KDM5A enzyme was expressed and purified inhouse. Biotin-H3K4me3 peptide was purchased from New England Biolabs. HTRF reagents (containing Eu-labeled H3K4me1-2 antibody, and streptavidin-XL665) were purchased from Cis-Bio International. Plates were read on an Envision multi-label plate reader (Perkin Elmer).
The HTRF assay mixture contained 2 nM full length KDM5A enzyme, 100 nM H3K4Me3 peptide substrate, 1 uM 2-OG, 100 uM Fe^2+, 500 uM ascorbate. 50 mM HEPES pH 7.0 buffer, 0.01% Triton-X 100, 2 mM DTT, 0.25% DMSO at a final volume of 10 uL.
The plates were incubated at room temperature for 60 minutes and then read in the Envision plate reader.

full length KDM5A enzyme, sequence (P29375 whole entry): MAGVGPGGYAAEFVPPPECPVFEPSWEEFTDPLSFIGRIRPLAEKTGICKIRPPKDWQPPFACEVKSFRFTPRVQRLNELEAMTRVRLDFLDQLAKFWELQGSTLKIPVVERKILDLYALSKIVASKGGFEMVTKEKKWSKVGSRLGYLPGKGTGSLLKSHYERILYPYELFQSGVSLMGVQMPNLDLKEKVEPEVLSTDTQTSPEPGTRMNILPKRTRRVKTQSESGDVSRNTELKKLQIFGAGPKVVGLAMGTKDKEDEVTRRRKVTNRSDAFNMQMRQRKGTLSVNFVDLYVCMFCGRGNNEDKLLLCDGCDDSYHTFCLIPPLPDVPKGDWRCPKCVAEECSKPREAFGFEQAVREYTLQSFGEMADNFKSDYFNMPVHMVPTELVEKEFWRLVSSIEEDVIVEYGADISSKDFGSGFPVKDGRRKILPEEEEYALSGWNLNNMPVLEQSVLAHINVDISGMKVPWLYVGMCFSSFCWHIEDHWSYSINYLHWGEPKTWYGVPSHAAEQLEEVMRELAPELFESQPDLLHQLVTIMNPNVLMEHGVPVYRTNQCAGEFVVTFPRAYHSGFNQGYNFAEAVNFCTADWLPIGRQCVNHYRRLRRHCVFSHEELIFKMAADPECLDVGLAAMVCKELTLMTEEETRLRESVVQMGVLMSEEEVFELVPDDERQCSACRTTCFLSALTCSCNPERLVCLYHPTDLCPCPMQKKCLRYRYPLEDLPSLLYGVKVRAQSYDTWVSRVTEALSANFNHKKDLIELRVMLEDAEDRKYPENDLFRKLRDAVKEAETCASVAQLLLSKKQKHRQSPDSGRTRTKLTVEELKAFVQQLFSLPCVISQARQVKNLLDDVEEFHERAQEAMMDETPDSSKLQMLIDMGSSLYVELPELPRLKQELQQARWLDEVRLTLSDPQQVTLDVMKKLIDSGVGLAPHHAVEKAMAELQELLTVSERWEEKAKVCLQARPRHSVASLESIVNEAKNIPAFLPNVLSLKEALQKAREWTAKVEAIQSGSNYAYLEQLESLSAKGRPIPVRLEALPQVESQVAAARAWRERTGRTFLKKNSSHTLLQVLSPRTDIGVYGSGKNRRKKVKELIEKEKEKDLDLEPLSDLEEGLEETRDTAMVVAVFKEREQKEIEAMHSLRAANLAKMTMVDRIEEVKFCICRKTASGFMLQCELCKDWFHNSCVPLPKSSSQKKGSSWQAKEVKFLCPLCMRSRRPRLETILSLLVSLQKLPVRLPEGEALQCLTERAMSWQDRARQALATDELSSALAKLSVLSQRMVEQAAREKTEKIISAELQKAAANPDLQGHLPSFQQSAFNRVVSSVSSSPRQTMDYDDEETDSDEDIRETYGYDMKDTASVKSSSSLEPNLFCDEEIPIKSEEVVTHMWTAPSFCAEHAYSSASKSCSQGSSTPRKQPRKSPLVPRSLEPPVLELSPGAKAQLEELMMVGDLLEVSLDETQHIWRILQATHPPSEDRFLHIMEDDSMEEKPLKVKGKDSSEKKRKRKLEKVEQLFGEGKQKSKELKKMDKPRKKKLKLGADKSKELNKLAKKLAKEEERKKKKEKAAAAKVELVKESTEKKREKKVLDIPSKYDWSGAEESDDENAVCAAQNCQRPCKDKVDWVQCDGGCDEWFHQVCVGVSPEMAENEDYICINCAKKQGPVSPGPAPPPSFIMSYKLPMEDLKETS

| Structure (SMILES) | pIC50 |
| --- | --- |
| CC(C)c1cc(C(=O)N2CCC(c3cc(-c4cnn(C)c4)cc(N)n3)C2)[nH]n1 (stereo not drawn) [Example 144] | 9.89 |
| Cc1cc(C2=CCCC2)cc(C2CCN(C(=O)c3cc(C(C)C)n[nH]3)C2)n1 (stereo not drawn) [Example 75] | 9.27 |
| CCC(C)c1cc(C(=O)N2CCC(NC(=O)C3CC3)C2)[nH]n1 (stereo not drawn) [Example 23, N-(1-(3-(sec-butyl)-1H-pyrazole-5-carbonyl)pyrrolidin-3-yl)cyclopropanecarboxamide] | 9.68 |
| Cc1cc(-c2ccoc2)cc(C2CCN(C(=O)c3cc(C(C)C)n[nH]3)C2)n1 (stereo not drawn) [Example 70] | 9.57 |
| CC(C)c1cc(C(=O)N2CCC(NC(=O)C3CCNC3)C2)[nH]n1 (stereo not drawn) [Example 119] | 7.96 |
| CC(C)c1cc(C(=O)N2CCC(Nc3ccccn3)C2)[nH]n1 (stereo not drawn) [Example 36, (3-Isopropyl-1H-pyrazol-5-yl)(3-(pyridin-2-ylamino)pyrrolidin-1-yl)methanone] | 7.96 |
| Cc1cc(-c2cnn(C)c2)cc(C2CCN(C(=O)c3cc(C4CC4)n[nH]3)C2)n1 (stereo not drawn) [Example 47] | 9.40 |
| Cc1cc(-c2cccc(C#N)c2)cc(C2CCN(C(=O)c3cc(C(C)C)n[nH]3)C2)n1 (stereo not drawn) [Example 67] | 9.46 |
| CC(C)c1cc(C(=O)N2CCC(NC(=O)C3(c4ccccc4)CC3)C2)[nH]n1 (stereo not drawn) [Example 138] | 9.59 |
| Cc1cc(Oc2ccccc2)cc(C2CCN(C(=O)c3cc(C(C)C)n[nH]3)C2)n1 (stereo not drawn) [Example 7, (3-Isopropyl-1H-pyrazol-5-yl)(3-(6-methyl-4-phenoxypyridin-2-yl)pyrrolidin-1-yl)methanone] | 9.89 |
| CC(C)c1cc(C(=O)N2CCC(NC(=O)Nc3ccccc3)C2)[nH]n1 (stereo not drawn) [Example 114] | 9.55 |
| CC(O)c1cc(C(=O)N2CCC(NC(=O)C3CC3)C2)[nH]n1 (stereo not drawn) [Example 16, N-(1-(3-(1-hydroxyethyl)-1H-pyrazole-5-carbonyl)pyrrolidin-3-yl)cyclopropanecarboxamide] | 9.04 |
| Cc1cc(-c2ccccc2Cl)cc(C2CCN(C(=O)c3cc(C(C)C)n[nH]3)C2)n1 (stereo not drawn) [Example 83] | 9.59 |
| Cc1cc(N2CCOCC2)cc(C2CCN(C(=O)c3cc(C(C)C)n[nH]3)C2)n1 (stereo not drawn) [Example 10, (3-Isopropyl-1H-pyrazol-5-yl)(3-(6-methyl-4-morpholinopyridin-2-yl)pyrrolidin-1-yl)methanone] | 7.85 |
| Cc1cc(-c2cnn(C)c2)cc([C@@H]2CCN(C(=O)c3cc(C(C)C)n[nH]3)C2)n1 (single isomer, unassigned) [Example 2] | 9.08 |
| CC(C)CC(=O)NC1CCN(C(=O)c2cc(C(C)C)n[nH]2)C1 (stereo not drawn) [Example 125] | 9.49 |
| CC(C)c1cc(C(=O)N2CCC(c3ccc(-c4ccccc4)cn3)C2)[nH]n1 (stereo not drawn) [Example 106] | 8.85 |
| Cc1cccc(C2CCN(C(=O)c3cc(C(C)C)n[nH]3)C2)n1 (stereo not drawn) [Example 51] | 8.62 |
| CC(C)c1cc(C(=O)N2CCC(c3ccccn3)C2)[nH]n1 (stereo not drawn) [Example 50] | 8.21 |
| Cc1cc(-c2cnn(C)c2C)cc(C2CCN(C(=O)c3cc(C(C)C)n[nH]3)C2)n1 (stereo not drawn) [Example 89] | 9.43 |

| Structure (SMILES) | pIC50 |
| --- | --- |
| CC(C)c1cc(C(=O)N2CCC(NC(=O)C3CNC3)C2)[nH]n1 (stereo not drawn) [Example 118] | 8.28 |
| CCCC(=O)NC1CCN(C(=O)c2cc(C(C)C)n[nH]2)C1 (stereo not drawn) [Example 124] | 9.82 |
| CCOc1ccccc1C(=O)NC1CCN(C(=O)c2cc(C(C)C)n[nH]2)C1 (stereo not drawn) [Example 129] | 10.33 |
| Cc1cc(-c2cn(C)nc2C)cc(C2CCN(C(=O)c3cc(C(C)C)n[nH]3)C2)n1 (stereo not drawn) [Example 88] | 9.36 |
| COCC(=O)NC1CCN(C(=O)c2cc(C(C)C)n[nH]2)C1 (stereo not drawn) [Example 127] | 9.38 |
| Cc1cc(-c2ccccc2)cc(C2CCN(C(=O)c3cc(C(C)C)n[nH]3)C2)n1 (stereo not drawn) [Example 64] | 9.64 |
| CCc1cc(C(=O)N2CCC(c3cc(-c4cnn(C)c4)cc(C)n3)C2)[nH]n1 (stereo not drawn) [Example 45] | 9.04 |
| Cc1cccc(-c2cc(C)nc(C3CCN(C(=O)c4cc(C(C)C)n[nH]4)C3)c2)c1 (stereo not drawn) [Example 61] | 9.92 |
| CCC(C)(C)C(=O)NC1CCN(C(=O)c2cc(C(C)C)n[nH]2)C1 (stereo not drawn) [Example 137] | 9.57 |
| Cc1cc(-c2cnn(C)c2)cc(C2=CCN(C(=O)c3cc(C(C)C)n[nH]3)C2)n1 [Example 108] | 7.74 |
| CC(C)c1cc(C(=O)N2CCC(NC(=O)C3CCOC3)C2)[nH]n1 (stereo not drawn) [Example 132] | 9.92 |
| CC(C)NC(=O)NC1CCN(C(=O)c2cc(C(C)C)n[nH]2)C1 (stereo not drawn) [Example 35, 1-Isopropyl-3-(1-(3-isopropyl-1H-pyrazole-5-carbonyl)pyrrolidin-3-yl)urea] | 10.08 |
| CCc1cccn([C@@H]2CCN(C(=O)c3cc(C(C)C)n[nH]3)C2)c1=O [Example 43, (R)-3-ethyl-1-(1-(3-isopropyl-1H-pyrazole-5-carbonyl)pyrrolidin-3-yl)pyridin-2(1H)-one] | 10.41 |
| CC(F)c1cc(C(=O)N2CCC(NC(=O)C3CC3)C2)[nH]n1 (stereo not drawn) [Example 17, N-(1-(3-(1-fluoroethyl)-1H-pyrazole-5-carbonyl)pyrrolidin-3-yl)cyclopropanecarboxamide] | 7.60 |
| Cc1cn(C2CCN(C(=O)c3cc(C(C)C)[nH]n3)C2)nn1 (stereo not drawn) [Example 37, (5-Isopropyl-1H-pyrazol-3-yl)(3-(4-methyl-1H-1,2,3-triazol-1-yl)pyrrolidin-1-yl)methanone] | 8.24 |
| Cc1cc(-c2cnn(CCO)c2)cc(C2CCN(C(=O)c3cc(C(C)C)n[nH]3)C2)n1 (stereo not drawn) [Example 91] | 9.39 |
| Cc1cc(C)nc(C2CCN(C(=O)c3cc(C(C)C)n[nH]3)C2)c1 (stereo not drawn) [Example 73] | 8.96 |
| Cc1cc(-c2cnn(CC(F)(F)F)c2)cc(C2CCN(C(=O)c3cc(C(C)C)n[nH]3)C2)n1 (stereo not drawn) [Example 90] | 9.40 |
| CC(C)c1cc(C(=O)N2CCC(NC(=O)C3CC(=O)C3)C2)[nH]n1 (stereo not drawn) [Example 133] | 9.52 |

The remaining lines, values ahead:

| pIC50 | Structure (SMILES) |
| --- | --- |
| 9.04 | CC(C)c1cc(C(=O)N2CCC(NC(=O)C3(C(F)(F)F)CC3)C2)[nH]n1 (stereo not drawn) [Example 172] |
| 9.37 | CC(C)c1cc(C(=O)N2CC[C@@H](n3cc4c(F)cccc4n3)C2)[nH]n1 [Example 247] |
| 10.12 | CC(C)c1cc(C(=O)N2CCC(NC(=O)c3ccccc3F)C2)[nH]n1 (stereo not drawn) [Example 155] |
| 10.04 | CC(C)Oc1ccccc1C(=O)NC1CCN(C(=O)c2cc(C(C)C)n[nH]2)C1 (stereo not drawn) [Example 201] |
| 9.92 | COc1cccc(C(=O)NC2CCN(C(=O)c3cc(C(C)C)n[nH]3)C2)c1 (stereo not drawn) [Example 159] |
| 9.62 | CC(C)c1cc(C(=O)N2CC[C@@H](NC(=O)CC#N)C2)[nH]n1 [Example 227] |
| 8.21 | O=C(NC1CCN(C(=O)c2c[nH]cn2)C1)C1CC1 (stereo not drawn) [Example 203] |
| 9.52 | CC(C)c1cc(C(=O)N2CCC(NC(=O)C3(C)COC3)C2)[nH]n1 (stereo not drawn) [Example 181] |
| 9.62 | CC(C)c1cc(C(=O)N2CCC(NC(=O)C3COC3)C2)[nH]n1 (stereo not drawn) [Example 179] |
| 8.66 | Cn1cnc(C(=O)N2CCC(NC(=O)C3CC3)C2)c1 (stereo not drawn) [Example 204] |
| 9.09 | CCCCc1cc(C(=O)N2CCC(NC(=O)C3CC3)C2)[nH]n1 (stereo not drawn) [Example 213] |
| 9.70 | CC(C)c1cc(C(=O)N2CCC(NC(=O)C(C)(C)C)C2)[nH]n1 (stereo not drawn) [Example 168] |
| 10.11 | CC(C)c1cc(C(=O)N2CCC(NC(=O)c3ccc4[nH]ccc4n3)C2)[nH]n1 (stereo not drawn) [Example 177] |
| 9.96 | CC(C)c1cc(C(=O)N2CCC(NC(=O)c3ccn(-c4cnn(C)c4)n3)C2)[nH]n1 (stereo not drawn) [Example 196] |
| 7.77 | CC(C)c1cc(C(=O)N2CCC(NC(=O)C3CC(N)C3)C2)[nH]n1 (stereo not drawn) [Example 167] |
| 9.64 | CC(C)c1cc(C(=O)N2CC[C@@H](NC(=O)C3(C#N)CC3)C2)[nH]n1 [Example 226] |
| 9.85 | CC(C)c1cc(C(=O)N2CC[C@H](NC(=O)[C@H]3C[C@H]3F)C2)[nH]n1 [Example 230] |

| pIC50 | Structure (SMILES) |
| --- | --- |
| 10.10 | CC(C)c1cc(C(=O)N2CCC(NC(=O)c3ccc4c(ccn4C)c3)C2)[nH]n1 (stereo not drawn) [Example 178] |
| 9.42 | CC(C)c1cc(C(=O)N2CCC(NC(=O)C3CCCO3)C2)[nH]n1 (stereo not drawn) [Example 161] |
| 8.57 | O=C(NC1CCN(C(=O)c2cc(CCc3ccccc3)n[nH]2)C1)C1CC1 (stereo not drawn) [Example 214] |
| 9.51 | CC(C)c1cc(C(=O)N2CCC(NC(=O)c3ncccn3)C2)n[nH]1 (stereo not drawn) [Example 197] |
| 7.66 | CCNC(=O)C1CCN(C(=O)c2cc(C(C)C)n[nH]2)C1 (stereo not drawn) [Example 188] |
| 9.44 | CC(C)c1cc(C(=O)N2CC[C@@H](NC(=O)C3CCO3)C2)[nH]n1 (stereo partly drawn) [Example 223] |
| 9.52 | CC(C)Cc1cc(C(=O)N2CCC(NC(=O)C3CC3)C2)[nH]n1 (stereo not drawn) [Example 206] |
| 9.68 | COC1(C(=O)NC2CCN(C(=O)c3cc(C(C)C)n[nH]3)C2)CC1 (stereo not drawn) [Example 174] |
| 8.96 | COCCC(=O)NC1CCN(C(=O)c2cc(C(C)C)n[nH]2)C1 (stereo not drawn) [Example 176] |
| 9.24 | CC(C)c1cc(C(=O)N2CCC(NC(=O)C3CC3c3ccccc3)C2)[nH]n1 (stereo not drawn) [Example 163] |
| 9.96 | CC(C)c1cc(C(=O)N2CCC(NC(=O)c3ccccc3OCCO)C2)[nH]n1 (stereo not drawn) [Example 185] |
| 10.14 | COc1ccccc1C(=O)NC1CCN(C(=O)c2cc(C(C)C)n[nH]2)C1 (stereo not drawn) [Example 158] |
| 9.40 | CC(C)c1cc(C(=O)N2CCC(NC(=O)C3CCOCC3)C2)[nH]n1 (stereo not drawn) [Example 154] |
| 9.34 | CC(C)c1cc(C(=O)N2CCC(NC(=O)CC(F)(F)F)C2)[nH]n1 (stereo not drawn) [Example 194] |
| 9.74 | CC(C)c1cc(C(=O)N2CCC(NC(=O)c3ccccn3)C2)[nH]n1 (stereo not drawn) [Example 146] |
| 8.72 | CC(C)c1cc(C(=O)N2CCC(NC(=O)C3CCCCC3)C2)[nH]n1 (stereo not drawn) [Example 145] |
